Experimental data from patent US11981658B2, “Substituted aminopyridine compounds as EGFR inhibitors” (YUHAN CORPORATION, priority 2021, dated 2024).
Where two headings read alike, the source gives them in different places.

Assays:
EGFR wildtype (WT) = EGFR wildtype (WT) (Homo sapiens, UniProt P00533); experiment: Biochemical EGFR kinase inhibition assay (Lance Ultra TR-FRET), wildtype
Summary of the method: (§1)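 Enzyme reactions lasted 1 hour at room temperature with test compounds between 0.003 and 10 μM, followed by 10 mM EDTA quench.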

EGFR L858R/T790M/C797S = EGFR L858R/T790M/C797S (Homo sapiens, UniProt P00533, C797S/L858R/T790M); experiment: Biochemical EGFR kinase inhibition assay (Lance Ultra TR-FRET), triple mutant L858R/T790M/C797S
Summary of the method: as §1

EGFR L858R/C797S = EGFR L858R/C797S (Homo sapiens, UniProt P00533, C797S/L858R); experiment: Biochemical EGFR kinase inhibition assay (Lance Ultra TR-FRET), double mutant L858R/C797S
Summary of the method: as §1

EGFR Del19/T790M/C797S = EGFR Del19/T790M/C797S (Homo sapiens, UniProt P00533, C797S/DEL746-750/T790M); experiment: Biochemical EGFR kinase inhibition assay (Lance Ultra TR-FRET), triple mutant del19/T790M/C797S
Summary of the method: as §1

EGFR Del19/C797S = EGFR Del19/C797S (Homo sapiens, UniProt P00533, C797S/DEL746-750); experiment: Biochemical EGFR kinase inhibition assay (Lance Ultra TR-FRET), double mutant del19/C797S
Summary of the method: as §1

[1] = Km ATP, read-out: IC50 WT (nM), Km ATP
[2] = IC50 L858R/T790M/C797S (nM), 100 μM ATP
[3] = Km ATP, read-out: IC50 L858R/T790M/C797S (nM), Km ATP
[4] = IC50 L858R/C797S (nM), 100 μM ATP
[5] = Km ATP, read-out: IC50 L858R/C797S (nM), Km ATP
[6] = IC50 Del19/T790M/C797S (nM), 100 μM ATP
[7] = Km ATP, read-out: IC50 Del19/T790M/C797S (nM), Km ATP
[8] = IC50 Del19/C797S (nM), 100 μM ATP
[9] = Km ATP, read-out: IC50 Del19/C797S (nM), Km ATP

Chain of EGFR Del19/T790M/C797S (P00533 with tags, fused parts or gaps DEL746-750/T790M/C797S): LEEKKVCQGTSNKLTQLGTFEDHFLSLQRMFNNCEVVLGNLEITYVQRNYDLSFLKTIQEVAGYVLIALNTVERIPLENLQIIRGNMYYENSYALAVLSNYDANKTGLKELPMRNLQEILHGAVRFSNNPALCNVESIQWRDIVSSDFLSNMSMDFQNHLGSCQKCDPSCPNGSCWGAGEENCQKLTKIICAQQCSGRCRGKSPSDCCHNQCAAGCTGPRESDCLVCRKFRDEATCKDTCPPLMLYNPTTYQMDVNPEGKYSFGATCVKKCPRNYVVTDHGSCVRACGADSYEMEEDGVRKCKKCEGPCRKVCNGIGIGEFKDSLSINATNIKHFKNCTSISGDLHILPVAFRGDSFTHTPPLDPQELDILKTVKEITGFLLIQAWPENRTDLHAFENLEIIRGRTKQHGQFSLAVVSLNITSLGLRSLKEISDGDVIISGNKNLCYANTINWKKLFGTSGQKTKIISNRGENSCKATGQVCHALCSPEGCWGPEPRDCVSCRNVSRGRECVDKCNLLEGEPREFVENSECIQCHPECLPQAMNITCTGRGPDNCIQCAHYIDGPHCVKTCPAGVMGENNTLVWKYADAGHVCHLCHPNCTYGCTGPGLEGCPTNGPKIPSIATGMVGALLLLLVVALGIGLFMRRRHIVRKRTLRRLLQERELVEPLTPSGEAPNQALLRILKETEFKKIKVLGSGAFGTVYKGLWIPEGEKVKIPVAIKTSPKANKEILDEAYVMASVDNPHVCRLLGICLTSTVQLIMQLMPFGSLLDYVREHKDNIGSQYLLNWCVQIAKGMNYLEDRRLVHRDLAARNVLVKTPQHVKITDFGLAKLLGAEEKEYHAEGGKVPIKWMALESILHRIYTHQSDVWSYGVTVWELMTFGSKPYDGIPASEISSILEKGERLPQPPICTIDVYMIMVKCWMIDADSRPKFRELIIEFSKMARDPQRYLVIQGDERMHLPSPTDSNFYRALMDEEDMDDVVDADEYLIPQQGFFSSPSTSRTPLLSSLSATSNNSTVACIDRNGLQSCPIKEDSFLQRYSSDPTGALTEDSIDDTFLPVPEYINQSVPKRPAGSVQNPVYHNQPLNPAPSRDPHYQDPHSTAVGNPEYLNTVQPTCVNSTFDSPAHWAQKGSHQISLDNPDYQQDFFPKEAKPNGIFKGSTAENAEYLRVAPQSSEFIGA
Chain of EGFR wildtype (WT) (P00533 25-1210): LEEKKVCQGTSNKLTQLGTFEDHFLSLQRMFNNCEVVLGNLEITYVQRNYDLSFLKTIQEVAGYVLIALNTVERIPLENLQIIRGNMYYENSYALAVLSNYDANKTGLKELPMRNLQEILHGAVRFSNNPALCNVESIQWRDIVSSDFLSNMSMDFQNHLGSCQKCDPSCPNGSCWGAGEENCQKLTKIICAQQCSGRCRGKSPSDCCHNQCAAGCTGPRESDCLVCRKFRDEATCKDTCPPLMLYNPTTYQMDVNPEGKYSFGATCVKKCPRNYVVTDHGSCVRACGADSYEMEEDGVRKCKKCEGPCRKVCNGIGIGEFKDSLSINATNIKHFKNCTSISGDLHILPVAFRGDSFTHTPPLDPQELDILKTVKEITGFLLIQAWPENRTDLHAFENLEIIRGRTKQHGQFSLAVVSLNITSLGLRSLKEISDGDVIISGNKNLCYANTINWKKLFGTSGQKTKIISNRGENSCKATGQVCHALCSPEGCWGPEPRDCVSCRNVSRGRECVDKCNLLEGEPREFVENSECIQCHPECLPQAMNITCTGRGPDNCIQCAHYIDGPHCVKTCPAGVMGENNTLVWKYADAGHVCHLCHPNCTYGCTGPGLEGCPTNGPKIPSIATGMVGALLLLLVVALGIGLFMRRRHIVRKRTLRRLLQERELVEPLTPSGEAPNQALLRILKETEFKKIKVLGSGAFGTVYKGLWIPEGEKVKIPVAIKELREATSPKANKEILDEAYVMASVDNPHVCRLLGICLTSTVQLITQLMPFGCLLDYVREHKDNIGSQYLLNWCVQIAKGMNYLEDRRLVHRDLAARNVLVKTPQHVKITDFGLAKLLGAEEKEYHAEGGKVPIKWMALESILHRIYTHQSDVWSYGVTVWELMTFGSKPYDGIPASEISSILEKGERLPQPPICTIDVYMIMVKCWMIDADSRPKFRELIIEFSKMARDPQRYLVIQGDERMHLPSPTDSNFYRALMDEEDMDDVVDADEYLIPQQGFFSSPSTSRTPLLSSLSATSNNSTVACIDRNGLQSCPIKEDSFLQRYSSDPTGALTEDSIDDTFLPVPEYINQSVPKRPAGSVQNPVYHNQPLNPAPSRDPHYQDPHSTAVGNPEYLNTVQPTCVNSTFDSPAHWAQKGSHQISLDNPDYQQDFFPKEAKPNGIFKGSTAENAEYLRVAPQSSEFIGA
Chain of EGFR L858R/T790M/C797S (P00533 25-1210 T790M/C797S/L858R): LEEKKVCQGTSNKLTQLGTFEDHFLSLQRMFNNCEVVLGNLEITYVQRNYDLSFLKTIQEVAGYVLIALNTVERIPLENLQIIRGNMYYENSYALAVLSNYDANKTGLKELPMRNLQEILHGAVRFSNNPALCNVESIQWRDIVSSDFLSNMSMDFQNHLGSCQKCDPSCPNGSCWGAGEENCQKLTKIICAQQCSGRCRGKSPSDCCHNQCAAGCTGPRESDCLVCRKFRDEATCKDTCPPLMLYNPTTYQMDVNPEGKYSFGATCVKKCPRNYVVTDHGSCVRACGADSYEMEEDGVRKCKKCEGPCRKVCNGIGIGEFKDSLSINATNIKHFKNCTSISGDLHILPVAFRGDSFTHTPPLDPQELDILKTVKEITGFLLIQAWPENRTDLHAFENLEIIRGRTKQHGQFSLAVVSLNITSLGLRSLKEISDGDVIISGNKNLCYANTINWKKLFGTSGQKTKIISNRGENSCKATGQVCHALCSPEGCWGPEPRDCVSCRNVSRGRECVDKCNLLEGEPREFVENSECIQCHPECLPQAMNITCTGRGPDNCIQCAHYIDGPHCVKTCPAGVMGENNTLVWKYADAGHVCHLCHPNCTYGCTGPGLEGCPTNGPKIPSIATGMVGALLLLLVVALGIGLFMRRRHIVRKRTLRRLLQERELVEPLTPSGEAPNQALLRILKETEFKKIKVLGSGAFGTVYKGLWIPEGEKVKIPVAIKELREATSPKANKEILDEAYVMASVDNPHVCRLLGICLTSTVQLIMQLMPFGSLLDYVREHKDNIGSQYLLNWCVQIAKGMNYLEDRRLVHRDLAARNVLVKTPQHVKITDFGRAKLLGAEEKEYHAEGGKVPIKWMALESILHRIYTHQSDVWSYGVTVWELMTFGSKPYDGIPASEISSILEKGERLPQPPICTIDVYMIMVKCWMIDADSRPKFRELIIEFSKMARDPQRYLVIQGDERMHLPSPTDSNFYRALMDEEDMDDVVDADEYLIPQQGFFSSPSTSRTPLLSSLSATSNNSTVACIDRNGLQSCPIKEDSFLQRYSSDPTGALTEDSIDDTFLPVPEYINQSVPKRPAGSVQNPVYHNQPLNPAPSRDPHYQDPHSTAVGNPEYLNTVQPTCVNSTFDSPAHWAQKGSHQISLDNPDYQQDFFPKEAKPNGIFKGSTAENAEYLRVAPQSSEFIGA
Chain of EGFR L858R/C797S (P00533 25-1210 C797S/L858R): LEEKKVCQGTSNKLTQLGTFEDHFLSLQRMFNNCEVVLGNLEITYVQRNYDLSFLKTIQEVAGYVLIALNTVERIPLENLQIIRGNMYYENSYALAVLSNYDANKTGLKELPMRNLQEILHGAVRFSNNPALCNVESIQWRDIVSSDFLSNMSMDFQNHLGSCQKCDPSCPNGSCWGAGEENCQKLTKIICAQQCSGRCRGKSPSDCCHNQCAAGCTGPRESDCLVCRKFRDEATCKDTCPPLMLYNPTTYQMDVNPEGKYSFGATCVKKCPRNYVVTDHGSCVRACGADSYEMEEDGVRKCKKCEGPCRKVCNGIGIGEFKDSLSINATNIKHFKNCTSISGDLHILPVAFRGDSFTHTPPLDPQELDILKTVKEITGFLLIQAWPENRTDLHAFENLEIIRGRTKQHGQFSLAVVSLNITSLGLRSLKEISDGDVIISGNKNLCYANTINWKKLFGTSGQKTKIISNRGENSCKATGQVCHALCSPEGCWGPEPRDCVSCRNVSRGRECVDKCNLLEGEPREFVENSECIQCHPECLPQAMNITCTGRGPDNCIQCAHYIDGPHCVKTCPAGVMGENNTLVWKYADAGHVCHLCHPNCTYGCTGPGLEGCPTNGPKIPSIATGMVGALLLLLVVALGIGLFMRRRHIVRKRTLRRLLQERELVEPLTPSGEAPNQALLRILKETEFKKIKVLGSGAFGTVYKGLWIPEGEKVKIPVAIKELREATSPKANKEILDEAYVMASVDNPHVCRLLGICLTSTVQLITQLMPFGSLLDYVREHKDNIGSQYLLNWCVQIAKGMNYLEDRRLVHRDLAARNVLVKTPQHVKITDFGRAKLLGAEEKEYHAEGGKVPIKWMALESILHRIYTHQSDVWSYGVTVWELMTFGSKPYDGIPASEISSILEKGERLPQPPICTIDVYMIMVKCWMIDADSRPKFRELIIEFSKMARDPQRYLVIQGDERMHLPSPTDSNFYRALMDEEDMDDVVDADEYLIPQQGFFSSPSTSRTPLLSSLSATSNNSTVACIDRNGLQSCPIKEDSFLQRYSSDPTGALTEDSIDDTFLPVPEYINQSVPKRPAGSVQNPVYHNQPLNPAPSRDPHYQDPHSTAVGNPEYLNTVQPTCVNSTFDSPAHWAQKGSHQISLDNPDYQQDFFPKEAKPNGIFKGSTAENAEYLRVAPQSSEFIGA

| Structure (SMILES) | IC50 (EGFR wildtype (WT); IC50 WT (nM), 100 μM ATP) | IC50 (EGFR wildtype (WT); [1]) | IC50 (EGFR L858R/T790M/C797S; [2]) | IC50 (EGFR L858R/T790M/C797S; [3]) | IC50 (EGFR L858R/C797S; [4]) | IC50 (EGFR L858R/C797S; [5]) | IC50 (EGFR Del19/T790M/C797S; [6]) | IC50 (EGFR Del19/T790M/C797S; [7]) | IC50 (EGFR Del19/C797S; [8]) | IC50 (EGFR Del19/C797S; [9]) |
| --- | --- | --- | --- | --- | --- | --- | --- | --- | --- | --- |
| CN(C)CCC1CCCN(c2cc(Nc3ccnc(-c4cnn(S(=O)(=O)C5CC5)c4)n3)ncc2C#Cc2cnn(CCF)c2)C1 (stereo not drawn) [Example 386, 2-(1-(Cyclopropylsulfonyl)-1H-pyrazol-4-yl)-N-(4-(3-(2-(dimethylamino)ethyl)piperidin-1-yl)-5-((1-(2-fluoroethyl)-1H-pyrazol-4-yl)ethynyl)pyridin-2-yl)pyrimidin-4-amine] | 1790 nM | 3 nM | 0.4 nM | 0.1 nM | 7.6 nM | 0.9 nM | 0.3 nM | 0.1 nM | 1.4 nM | 0.9 nM |
| CS(=O)(=O)N1CCC(C#Cc2cnc(Nc3ccnc(-c4cnn(S(=O)(=O)C5CC5)c4)n3)cc2N[C@H]2CC[C@@H](CO)CC2)CC1 [Example 387, ((1s,4s)-4-((2-((2-(1-(Cyclopropylsulfonyl)-1H-pyrazol-4-yl)pyrimidin-4-yl)amino)-5-((1-(methylsulfonyl)piperidin-4-yl)ethynyl)pyridin-4-yl)amino)cyclohexyl)methanol] | > 10000 nM | 9.5 nM | 0.7 nM | 0.2 nM | 36.7 nM | 2.7 nM | 0.6 nM | 0.3 nM | 4.4 nM | 1.2 nM |
| CS(=O)(=O)N1CCC(C#Cc2cnc(Nc3ccnc(-c4cnn(S(=O)(=O)C5CC5)c4)n3)cc2NC[C@H]2CC[C@H](CO)CC2)CC1 [Example 388, ((1r,4r)-4-(((2-((2-(1-(Cyclopropylsulfonyl)-1H-pyrazol-4-yl)pyrimidin-4-yl)amino)-5-((1-(methylsulfonyl)piperidin-4-yl)ethynyl)pyridin-4-yl)amino)methyl)cyclohexyl)methanol] | > 10000 nM | 312 nM | 19.3 nM | 2 nM | 624 nM | 38.6 nM | 6.6 nM | 2.7 nM | 127 nM | 33.3 nM |
| CC1(CO)CCN(c2cc(Nc3ccnc(-c4cnn(S(=O)(=O)C5CC5)c4)n3)ncc2C#CC2CCN(S(C)(=O)=O)CC2)CC1 [Example 389, (1-(2-((2-(1-(Cyclopropylsulfonyl)-1H-pyrazol-4-yl)pyrimidin-4-yl)amino)-5-((1-(methylsulfonyl)piperidin-4-yl)ethynyl)pyridin-4-yl)-4-methylpiperidin-4-yl)methanol] | 5200 nM | 4.6 nM | 0.7 nM | 0.1 nM | 14.5 nM | 1.6 nM | 0.5 nM | 0.3 nM | 2.1 nM | 0.4 nM |
| O=S(=O)(C1CC1)N1CCC(C#Cc2cnc(Nc3ccnc(-c4cnn(S(=O)(=O)C5CC5)c4)n3)cc2N[C@H]2CC[C@@H](CO)CC2)CC1 [Example 390, ((1s,4s)-4-((2-((2-(1-(Cyclopropylsulfonyl)-1H-pyrazol-4-yl)pyrimidin-4-yl)amino)-5-((1-(cyclopropylsulfonyl)piperidin-4-yl)ethynyl)pyridin-4-yl)amino)cyclohexyl)methanol] | > 10000 nM | 47.7 nM | 8.3 nM | 1.1 nM | 192 nM | 30.1 nM | 5.3 nM | 2.5 nM | 11.6 nM | 7.3 nM |
| O=S(=O)(C1CC1)N1CCC(C#Cc2cnc(Nc3ccnc(-c4cnn(S(=O)(=O)C5CC5)c4)n3)cc2N[C@H]2CC[C@@H](O)CC2)CC1 [Example 391, (1s,4s)-4-((2-((2-(1-(Cyclopropylsulfonyl)-1H-pyrazol-4-yl)pyrimidin-4-yl)amino)-5-((1-(cyclopropylsulfonyl)piperidin-4-yl)ethynyl)pyridin-4-yl)amino)cyclohexan-1-ol] | > 10000 nM | 25.6 nM | 2.1 nM | 0.4 nM | 63.4 nM | 19.2 nM | 1.3 nM | 0.6 nM | 5.1 nM | 3 nM |
| O=S(=O)(C1CC1)N1CCC(C#Cc2cnc(Nc3ccnc(-c4cnn(S(=O)(=O)C5CC5)c4)n3)cc2NC[C@H]2CC[C@H](CO)CC2)CC1 [Example 392, ((1r,4r)-4-(((2-((2-(1-(Cyclopropylsulfonyl)-1H-pyrazol-4-yl)pyrimidin-4-yl)amino)-5-((1-(cyclopropylsulfonyl)piperidin-4-yl)ethynyl)pyridin-4-yl)amino)methyl)cyclohexyl)methanol] | > 10000 nM |  | 60.1 nM |  | 4300 nM |  | 22 nM |  | 212 nM |  |
| O=S(=O)(C1CC1)N1CCC(C#Cc2cnc(Nc3ccnc(-c4cnn(S(=O)(=O)C5CC5)c4)n3)cc2NC2CCC(CO)CC2)C1 (stereo not drawn) [Example 393, ((1s,4s)-4-((2-((2-(1-(Cyclopropylsulfonyl)-1H-pyrazol-4-yl)pyrimidin-4-yl)amino)-5-((1-(cyclopropylsulfonyl)pyrrolidin-3-yl)ethynyl)pyridin-4-yl)amino)cyclohexyl)methanol] | > 10000 nM | 21.3 nM | 1.2 nM | 0.4 nM | 50 nM | 3.4 nM | 0.6 nM | 0.5 nM | 7.9 nM | 7.3 nM |
| O=S(=O)(C1CC1)N1CCC(C#Cc2cnc(Nc3ccnc(-c4cnn(S(=O)(=O)C5CC5)c4)n3)cc2NC2CCC(O)CC2)C1 (stereo not drawn) [Example 394, (1s,4s)-4-((2-((2-(1-(Cyclopropylsulfonyl)-1H-pyrazol-4-yl)pyrimidin-4-yl)amino)-5-((1-(cyclopropylsulfonyl)pyrrolidin-3-yl)ethynyl)pyridin-4-yl)amino)cyclohexan-1-ol] | > 10000 nM | 15.7 nM | 1.5 nM | 0.2 nM | 52.5 nM | 4.3 nM | 0.6 nM | 0.5 nM | 12.3 nM | 7.5 nM |
| CC1(CO)CCN(c2cc(Nc3ccnc(-c4cnn(S(=O)(=O)C5CC5)c4)n3)ncc2C#CC2CCN(S(=O)(=O)C3CC3)C2)CC1 (stereo not drawn) [Example 395, (1-(2-((2-(1-(Cyclopropylsulfonyl)-1H-pyrazol-4-yl)pyrimidin-4-yl)amino)-5-((1-(cyclopropylsulfonyl)pyrrolidin-3-yl)ethynyl)pyridin-4-yl)-4-methylpiperidin-4-yl)methanol] | 9220 nM | 16.9 nM | 1.3 nM | 0.3 nM | 51.2 nM | 2.7 nM | 0.7 nM | 0.6 nM | 8.3 nM | 6.6 nM |
| CN(C)CCC1CCCN(c2cc(Nc3ccnc(-c4cnn(S(=O)(=O)C5CC5)c4)n3)ncc2C#Cc2cnn(C)c2)C1 (stereo not drawn) [Example 396, 2-(1-(Cyclopropylsulfonyl)-1H-pyrazol-4-yl)-N-(4-(3-(2-(dimethylamino)ethyl)piperidin-1-yl)-5-((1-methyl-1H-pyrazol-4-yl)ethynyl)pyridin-2-yl)pyrimidin-4-amine] | 3390 nM | 6.5 nM | 0.7 nM | 0.1 nM | 12.2 nM | 0.6 nM | 0.5 nM | 1 nM | 1 nM | 0.5 nM |
| CS(=O)(=O)N1CCC(C#Cc2cnc(Nc3ccnc(-c4cnn(S(=O)(=O)C5CC5)c4)n3)cc2NC2CCC(CO)CC2)C1 (stereo not drawn) [Example 397, ((1s,4s)-4-((2-((2-(1-(Cyclopropylsulfonyl)-1H-pyrazol-4-yl)pyrimidin-4-yl)amino)-5-((1-(methylsulfonyl)pyrrolidin-3-yl)ethynyl)pyridin-4-yl)amino)cyclohexyl)methanol] | > 10000 nM | 16.9 nM | 1.3 nM | 0.5 nM | 31.3 nM | 1.5 nM | 0.9 nM | 1.5 nM | 1.5 nM | 0.7 nM |
| CS(=O)(=O)N1CCC(C#Cc2cnc(Nc3ccnc(-c4cnn(S(=O)(=O)C5CC5)c4)n3)cc2NCC2CCC(O)CC2)C1 (stereo not drawn) [Example 398, (1 r,4r)-4-(((2-((2-(1-(Cyclopropylsulfonyl)-1H-pyrazol-4-yl)pyrimidin-4-yl)amino)-5-((1-(methylsulfonyl)pyrrolidin-3-yl)ethynyl)pyridin-4-yl)amino)methyl)cyclohexan-1-ol] | > 10000 nM | 294 nM | 29.3 nM | 24.7 nM | 971 nM | 17.8 nM | 14.9 nM | 26.7 nM | 44.3 nM | 16.6 nM |
| CS(=O)(=O)N1CCC(C#Cc2cnc(Nc3ccnc(-c4cnn(S(=O)(=O)C5CC5)c4)n3)cc2NC2CCC(O)CC2)C1 (stereo not drawn) [Example 399, (1s,4s)-4-((2-((2-(1-(Cyclopropylsulfonyl)-1H-pyrazol-4-yl)pyrimidin-4-yl)amino)-5-((1-(methylsulfonyl)pyrrolidin-3-yl)ethynyl)pyridin-4-yl)amino)cyclohexan-1-ol] | > 10000 nM | 10.2 nM | 1.2 nM | 0.8 nM | 28.2 nM | 1.6 nM | 5.7 nM | 1.3 nM | 1.4 nM | 0.6 nM |
